From ChEMBL document CHEMBL4049405, “Investigation on cellular uptake and pharmacodynamics of DOCK2-inhibitory peptides conjugated with cell-penetrating peptides” (Bioorg Med Chem, 2017) come the findings set out here.

Molecules are shown by their SMILES. Calls of active or inactive are those of the source. No cut-off for these calls is given here. Positions of bridges follow the written chain, without caps; N, C: chain ends. Non-standard residues stand in square brackets, D forms with d. Residues, ends and D or L forms follow the SMILES beside them. *: point of attachment. X1 = O=C(OCCCS*)Oc1ccc2nc(C3=N[C@@H](C(=O)O)CS3)sc2c1; X2 = CC(=O)[C@H]1CSC(c2nc3ccc(OC(=O)OCCCS*)cc3s2)=N1; Nle = CCCC[C@H](N)C(=O)O

Usually inhibition stands for the share of the control response that was lost under treatment. As a reminder, the IC50 is the midpoint of a concentration-inhibition curve. For orientation: viability means a read-out of living cells in per cent, often relative to untreated cells.

For data set [1], the system named is Mino. As to the kind of experiment: Antimigratory activity against human Mino cells assessed as inhibition of S1P stimulated cell migration at 1.1 uM measured after 30 mins by Cell-titer Glo assay. The data set is classed as functional, cell-based.
Data set [2] addresses T1, Dedicator of cytokinesis protein 2 (Homo sapiens, UniProt Q92608). As to the kind of experiment: Inhibition of Rac1 binding to biotinylated DOCK2 (unknown origin) by ELISA. Background: ELISA stands for enzyme-linked immunosorbent assay.
Data set [3] relates to Mino. Description: (§1) Antimigratory activity against human Mino cells assessed as inhibition of S1P stimulated cell migration at 10 uM measured after 30 mins by Cell-titer Glo assay relative to control. The data set is classed as functional.
For data set [4], the target named is T1, Dedicator of cytokinesis protein 2. Description: Inhibition of DOCK2 (unknown origin) GEF activity.
Data set [5] has the same target. As to the kind of experiment: Inhibition of Rac1 binding to DOCK2 (unknown origin) by ELISA.
Data set [6] is described as follows: (§2) Antimigratory activity against human Mino cells assessed as inhibition of S1P stimulated cell migration at 3.3 uM measured after 30 mins by Cell-titer Glo assay relative to control. The data set is classed as functional. The following applies: 0.5 h.
The nature of data set [7]: as §1. Format: functional. Particulars: 0.5 h.
Data set [8] is described as follows: Drug uptake in HEK293T cells expressing luciferase reporter gene at 50 uM measured every 3 mins for 60 mins by luminescence assay relative to 50 uM luciferin. Format: ADME, cell-based. The following applies: human, hek-293t, 1 h. For orientation: A reporter such as luciferase makes a cellular process visible.
Data set [9] in a line: Cytotoxicity against HEK293T cells assessed as cell viability at 50 uM by CellTiter-Glo assay relative to control. Particulars: human. In general terms: In ATP-based viability assays light output follows the ATP content of the culture.
Data set [10] can be described thus: in vitro. The following applies: human, HEK293T cells.
Description: Cytotoxicity against HEK293T cells assessed as cell viability at 12.5 uM by CellTiter-Glo assay relative to control
A short description of data set [11]: in vitro. The following applies: human, HEK293T cells. This is another data set of the same source.
Description: Cytotoxicity against HEK293T cells assessed as cell viability at 6.3 uM by CellTiter-Glo assay relative to control
A short description of data set [12]: in vitro. The following applies: human, HEK293T cells. The source holds these as a separate data set.
Description: Cytotoxicity against HEK293T cells assessed as cell viability at 25 uM by CellTiter-Glo assay relative to control
Data set [13] has as its target T1, Dedicator of cytokinesis protein 2. As to the kind of experiment: Inhibition of GST-fused Rac1 (unknown origin) binding to recombinant N-terminal trigger factor/C-terminal SBP-tagged DOCK2 DHR-2 binding domain (unknown origin) expressed in mammalian cells assessed as reduction in Rac GEF activity pretreated for 1 hr followed by GST-fused Rac1 addition after 1 hr by ELISA. The data set is classed as cell-based.

The subject of data set [14] is Mino. Described as §2. Format: functional.

T1 sequence (Q92608 whole entry): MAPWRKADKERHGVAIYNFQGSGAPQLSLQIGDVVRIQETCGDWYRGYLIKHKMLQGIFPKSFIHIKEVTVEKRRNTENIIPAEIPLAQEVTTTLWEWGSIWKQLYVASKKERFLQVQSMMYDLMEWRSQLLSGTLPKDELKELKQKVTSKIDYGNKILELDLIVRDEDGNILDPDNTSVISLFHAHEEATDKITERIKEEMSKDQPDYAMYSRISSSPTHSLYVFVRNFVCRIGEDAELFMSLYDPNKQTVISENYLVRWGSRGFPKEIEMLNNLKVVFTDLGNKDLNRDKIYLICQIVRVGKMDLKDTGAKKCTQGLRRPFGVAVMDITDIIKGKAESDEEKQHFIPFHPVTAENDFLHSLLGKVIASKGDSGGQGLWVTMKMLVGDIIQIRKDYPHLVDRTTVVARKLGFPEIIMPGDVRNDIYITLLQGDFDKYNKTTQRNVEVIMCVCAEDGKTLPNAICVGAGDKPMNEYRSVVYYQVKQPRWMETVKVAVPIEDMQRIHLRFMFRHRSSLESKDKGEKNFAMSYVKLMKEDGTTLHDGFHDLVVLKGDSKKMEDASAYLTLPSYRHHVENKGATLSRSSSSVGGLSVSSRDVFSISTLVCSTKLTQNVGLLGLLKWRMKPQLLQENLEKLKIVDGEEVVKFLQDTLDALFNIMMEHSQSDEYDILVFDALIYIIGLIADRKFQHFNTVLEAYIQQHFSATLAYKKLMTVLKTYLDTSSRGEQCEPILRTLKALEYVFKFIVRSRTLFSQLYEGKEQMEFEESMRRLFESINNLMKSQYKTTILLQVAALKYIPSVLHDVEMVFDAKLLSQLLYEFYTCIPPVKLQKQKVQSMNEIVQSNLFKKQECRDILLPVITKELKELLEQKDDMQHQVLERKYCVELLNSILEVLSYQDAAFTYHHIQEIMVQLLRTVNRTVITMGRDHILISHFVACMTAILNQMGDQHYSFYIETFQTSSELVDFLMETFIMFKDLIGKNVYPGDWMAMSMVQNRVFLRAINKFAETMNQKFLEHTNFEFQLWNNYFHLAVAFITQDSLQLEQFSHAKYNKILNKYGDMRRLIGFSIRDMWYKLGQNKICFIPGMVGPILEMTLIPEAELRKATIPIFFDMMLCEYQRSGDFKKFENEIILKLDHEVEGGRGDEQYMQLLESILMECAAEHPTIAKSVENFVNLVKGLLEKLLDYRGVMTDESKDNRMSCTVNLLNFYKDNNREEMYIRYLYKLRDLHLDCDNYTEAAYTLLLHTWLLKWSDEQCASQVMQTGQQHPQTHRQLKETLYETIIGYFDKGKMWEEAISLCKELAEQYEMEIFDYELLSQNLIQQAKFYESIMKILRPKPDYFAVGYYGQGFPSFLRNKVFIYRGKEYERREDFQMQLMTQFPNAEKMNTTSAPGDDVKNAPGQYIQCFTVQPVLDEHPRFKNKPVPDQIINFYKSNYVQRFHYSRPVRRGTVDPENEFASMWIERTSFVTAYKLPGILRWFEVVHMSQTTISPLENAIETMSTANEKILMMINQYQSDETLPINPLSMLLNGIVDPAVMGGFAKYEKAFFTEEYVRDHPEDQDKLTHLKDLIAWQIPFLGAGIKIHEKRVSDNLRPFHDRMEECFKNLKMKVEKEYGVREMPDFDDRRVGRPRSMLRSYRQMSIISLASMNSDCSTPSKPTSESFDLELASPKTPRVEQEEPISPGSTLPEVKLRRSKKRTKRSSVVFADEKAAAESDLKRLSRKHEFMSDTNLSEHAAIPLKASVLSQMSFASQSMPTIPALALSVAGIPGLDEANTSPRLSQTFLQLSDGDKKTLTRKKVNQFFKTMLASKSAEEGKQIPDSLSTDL

Consider `CC(=O)N[C@H]1CSSC[C@@H](C(=O)N[C@@H](CCCNC(=N)N)C(=O)N[C@@H](CCCNC(=N)N)C(=O)N[C@@H](CCCNC(=N)N)C(N)=O)NC(=O)[C@H](Cc2c[nH]c3ccccc23)NC(=O)[C@@H]2CCCN2C(=O)[C@H](Cc2ccc(O)cc2)NC(=O)CNC(=O)[C@H](Cc2cnc[nH]2)NC(=O)[C@H](Cc2ccc(O)cc2)NC(=O)[C@H](CCCCN)NC(=O)[C@H](C)NC(=O)[C@H](C(C)C)NC1=O` (Ac-CVAKYHGYPWCRRR-NH2; disulfide 1-11), for which the inhibition result in the data set on Mino [1] and with Mino [3] was “Active” each time. In addition, in data set [2], the IC50 turned out to be 11 nM.
Regarding `CC(C)C[C@H](N)C(=O)N[C@@H](CC(N)=O)C(=O)N[C@@H](CCCNC(=N)N)C(=O)N[C@H]1CSSC[C@@H](C(=O)N[C@@H](CCCNC(=N)N)C(=O)N[C@@H](CCCNC(=N)N)C(=O)N[C@@H](CCCNC(=N)N)C(=O)O)NC(=O)[C@H](Cc2c[nH]c3ccccc23)NC(=O)[C@@H]2CCCN2C(=O)[C@H](Cc2ccc(O)cc2)NC(=O)CNC(=O)[C@H](Cc2cnc[nH]2)NC(=O)[C@H](Cc2ccc(O)cc2)NC(=O)[C@H](CCCCN)NC(=O)[C@H](C)NC(=O)[C@H](C(C)C)NC1=O` (H-LNRCVAKYHGYPWCRRR-OH; disulfide 4-14), the IC50 was 35 nM in data set [4] and 6 nM in [5].
Turning to `CC(=O)N[C@H]1CSSC[C@@H](C(=O)N[C@@H](CCCNC(=N)N)C(=O)N[C@@H](CCCNC(=N)N)C(=O)N[C@@H](CCCNC(=N)N)C(=O)N[C@H](C(=O)N[C@@H](CCCNC(=N)N)C(=O)N[C@H](C(=O)N[C@@H](CC(C)C)C(=O)N[C@@H](CCCCN)C(=O)N[C@@H](CCCNC(=N)N)C(=O)N[C@@H](Cc2c[nH]c3ccccc23)C(=O)N[C@@H](CCCCN)C(=O)N[C@@H](CC(C)C)C(=O)N[C@@H](Cc2ccccc2)C(N)=O)C(C)C)[C@@H](C)O)NC(=O)[C@H](Cc2c[nH]c3ccccc23)NC(=O)[C@@H]2CCCN2C(=O)[C@H](Cc2ccc(O)cc2)NC(=O)CNC(=O)[C@H](Cc2cnc[nH]2)NC(=O)[C@H](Cc2ccc(O)cc2)NC(=O)[C@H](CCCCN)NC(=O)[C@H](C)NC(=O)[C@H](C(C)C)NC1=O` (Ac-CVAKYHGYPWCRRRTRVLKRWKLF-NH2; disulfide 1-11), in the data set with Mino [1], the inhibition entry was “Active”. In addition, the inhibition at 3.3 µM in data set [6] is above 89%. The compound further had an IC50 in data set [2] of 31 nM. Further, the inhibition at 10 µM in data set [7] is above 89%.
As to `CC(=O)N[C@@H](CSSCCCOC(=O)Oc1ccc2nc(C3=N[C@@H](C(C)=O)CS3)sc2c1)C(=O)N[C@H]1CSSC[C@@H](C(=O)N[C@@H](CCCNC(=N)N)C(=O)N[C@@H](CCCNC(=N)N)C(=O)N[C@@H](CCCNC(=N)N)C(=O)N[C@H](C(=O)N[C@@H](CCCNC(=N)N)C(=O)N[C@H](C(=O)N[C@@H](CC(C)C)C(=O)N[C@@H](CCCCN)C(=O)N[C@@H](CCCNC(=N)N)C(=O)N[C@@H](Cc2c[nH]c3ccccc23)C(=O)N[C@@H](CCCCN)C(=O)N[C@@H](CC(C)C)C(=O)N[C@@H](Cc2ccccc2)C(N)=O)C(C)C)[C@@H](C)O)NC(=O)[C@H](Cc2c[nH]c3ccccc23)NC(=O)[C@@H]2CCCN2C(=O)[C@H](Cc2ccc(O)cc2)NC(=O)CNC(=O)[C@H](Cc2cnc[nH]2)NC(=O)[C@H](Cc2ccc(O)cc2)NC(=O)[C@H](CCCCN)NC(=O)[C@H](C)NC(=O)[C@H](C(C)C)NC1=O` (Ac-C(X2)CVAKYHGYPWCRRRTRVLKRWKLF-NH2; disulfide 2-12), in [8], the “fold change (FC)” value is 66.8. Further, the viability at 50 µM in [9] was 85.9%. In addition, the viability at 12.5 µM in “in vitro [10]” came out at 108%. In addition, the viability at 6.3 µM in “in vitro [11]” was 99.1%. Further, in the data set “in vitro [12]”, the viability at 25 µM turned out to be 97.1%.
As for `O=C1NN(c2ccccc2)C(=O)/C1=C/C=C/c1ccccc1Cl`, the IC50 in data set [13] is 22800 nM.
As for `CC(=O)N[C@H]1CSSC[C@@H](C(=O)N[C@@H](CCCNC(=N)N)C(=O)N[C@@H](CCCNC(=N)N)C(=O)N[C@@H](CCCNC(=N)N)C(=O)N[C@@H](CCCNC(=N)N)C(=O)N[C@@H](CCCNC(=N)N)C(=O)N[C@@H](CCCNC(=N)N)C(=O)N[C@@H](CCCNC(=N)N)C(=O)N[C@@H](CCCNC(=N)N)C(N)=O)NC(=O)[C@H](Cc2c[nH]c3ccccc23)NC(=O)[C@@H]2CCCN2C(=O)[C@H](Cc2ccc(O)cc2)NC(=O)CNC(=O)[C@H](Cc2cnc[nH]2)NC(=O)[C@H](Cc2ccc(O)cc2)NC(=O)[C@H](CCCCN)NC(=O)[C@H](C)NC(=O)[C@H](C(C)C)NC1=O` (Ac-CVAKYHGYPWCRRRRRRRR-NH2; disulfide 1-11), the inhibition result with Mino [1] is “Active”. Moreover, the inhibition at 3.3 µM in [6] is above 89%. Moreover, the IC50 in [2] came out at 8 nM. For the same compound, the inhibition at 10 µM in data set [7] was above 89%.
Regarding `CC(=O)N[C@@H](CSSCCCOC(=O)Oc1ccc2nc(C3=N[C@@H](C(=O)O)CS3)sc2c1)C(=O)N[C@H]1CSSC[C@@H](C(=O)N[C@@H](CCCNC(=N)N)C(=O)N[C@@H](CCCNC(=N)N)C(=O)N[C@@H](CCCNC(=N)N)C(=O)N[C@@H](CCCNC(=N)N)C(=O)N[C@@H](CCCNC(=N)N)C(=O)N[C@@H](CCCNC(=N)N)C(=O)N[C@@H](CCCNC(=N)N)C(=O)N[C@@H](CCCNC(=N)N)C(N)=O)NC(=O)[C@H](Cc2c[nH]c3ccccc23)NC(=O)[C@@H]2CCCN2C(=O)[C@H](Cc2ccc(O)cc2)NC(=O)CNC(=O)[C@H](Cc2cnc[nH]2)NC(=O)[C@H](Cc2ccc(O)cc2)NC(=O)[C@H](CCCCN)NC(=O)[C@H](C)NC(=O)[C@H](C(C)C)NC1=O` (Ac-C(X1)CVAKYHGYPWCRRRRRRRR-NH2; disulfide 2-12), the “fold change (FC)” value in data set [8] was determined as 61. The viability at 50 µM in [9] was 71.7%. In “in vitro [10]”, the viability at 12.5 µM is 104%. Further, the viability at 6.3 µM in the data set “in vitro [11]” was found to be 108%. Further, in the data set “in vitro [12]”, the viability at 25 µM stood at 99.7%.
Take `CC(=O)N[C@H]1CSSC[C@@H](C(=O)N[C@@H](CCCNC(=N)N)C(=O)N[C@@H](CCCNC(=N)N)C(=O)N[C@@H](CCCNC(=N)N)C(=O)N[C@@H](C)C(=O)N[C@@H](CC(C)C)C(=O)N[C@@H](Cc2c[nH]c3ccccc23)C(=O)N[C@@H](CCCCN)C(=O)N[C@H](C(=O)N[C@@H](CC(C)C)C(=O)N[C@@H](CC(C)C)C(=O)N[C@@H](CCCCN)C(=O)N[C@@H](CCCCN)C(=O)N[C@H](C(=O)N[C@@H](CC(C)C)C(=O)N[C@@H](CCCCN)C(=O)N[C@@H](C)C(=O)N2CCC[C@H]2C(=O)N[C@@H](CCCCN)C(=O)N[C@@H](CCCCN)C(=O)N[C@@H](CCCCN)C(=O)N[C@@H](CCCNC(=N)N)C(=O)N[C@@H](CCCCN)C(=O)N[C@H](C(N)=O)C(C)C)C(C)C)[C@@H](C)O)NC(=O)[C@H](Cc2c[nH]c3ccccc23)NC(=O)[C@@H]2CCCN2C(=O)[C@H](Cc2ccc(O)cc2)NC(=O)CNC(=O)[C@H](Cc2cnc[nH]2)NC(=O)[C@H](Cc2ccc(O)cc2)NC(=O)[C@H](CCCCN)NC(=O)[C@H](C)NC(=O)[C@H](C(C)C)NC1=O` (Ac-CVAKYHGYPWCRRRALWKTLLKKVLKAPKKKRKV-NH2; disulfide 1-11): the inhibition result in the data set on Mino [1] and in the data set with Mino [14] was “Active” throughout. Further, in data set [2], the IC50 came to 71 nM.
Take `CCCC[C@H](NC(=O)[C@H](CCCNC(=N)N)NC(=O)[C@H](CCCNC(=N)N)NC(=O)[C@H](CC(N)=O)NC(=O)[C@H](CCC(N)=O)NC(=O)[C@H](Cc1ccccc1)NC(=O)[C@H](Cc1c[nH]c2ccccc12)NC(=O)[C@@H](NC(=O)[C@H](CCCCN)NC(=O)[C@@H](NC(=O)[C@H](CCC(N)=O)NC(=O)[C@H](CCCNC(=N)N)NC(=O)[C@H](CCCNC(=N)N)NC(=O)[C@H](CCCNC(=N)N)NC(=O)[C@H](CCCNC(=N)N)NC(=O)[C@@H]1CSSC[C@H](NC(C)=O)C(=O)N[C@@H](C(C)C)C(=O)N[C@@H](C)C(=O)N[C@@H](CCCCN)C(=O)N[C@@H](Cc2ccc(O)cc2)C(=O)N[C@@H](Cc2cnc[nH]2)C(=O)NCC(=O)N[C@@H](Cc2ccc(O)cc2)C(=O)N2CCC[C@H]2C(=O)N[C@@H](Cc2c[nH]c3ccccc23)C(=O)N1)[C@@H](C)CC)[C@@H](C)CC)C(=O)N[C@@H](CCCCN)C(=O)N[C@@H](Cc1c[nH]c2ccccc12)C(=O)N[C@@H](CCCCN)C(=O)N[C@@H](CCCCN)C(N)=O` (Ac-CVAKYHGYPWCRRRRQIKIWFQNRR[Nle]KWKK-NH2; disulfide 1-11): the inhibition entry in the data set with Mino [1] and in the data set with Mino [14] was “Active” in each case. Moreover, the IC50 in [2] came to 95 nM.
